In ChEMBL document CHEMBL4507268 (2021):

What was measured:
[1] = molecular target: Non-receptor tyrosine-protein kinase TNK1 (Homo sapiens) (UniProt Q13470); conditions: Compound concentration 1000.0 nM
[2] = molecular target: Cyclin-dependent kinase-like 1 (Homo sapiens) (UniProt Q00532); conditions: Compound concentration 1000.0 nM
[3] = molecular target: Delta-type opioid receptor (Homo sapiens) (UniProt P41143); conditions: Compound concentration 10.0 uM
[4] = tested on: Hepatocyte growth factor receptor (Homo sapiens), P08581 [M1250T]; conditions: Compound concentration 1000.0 nM
[5] = molecular target: T1, Ephrin type-A receptor 1 (Homo sapiens) (UniProt P21709); conditions: Compound concentration 1000.0 nM
T1 sequence (whole entry): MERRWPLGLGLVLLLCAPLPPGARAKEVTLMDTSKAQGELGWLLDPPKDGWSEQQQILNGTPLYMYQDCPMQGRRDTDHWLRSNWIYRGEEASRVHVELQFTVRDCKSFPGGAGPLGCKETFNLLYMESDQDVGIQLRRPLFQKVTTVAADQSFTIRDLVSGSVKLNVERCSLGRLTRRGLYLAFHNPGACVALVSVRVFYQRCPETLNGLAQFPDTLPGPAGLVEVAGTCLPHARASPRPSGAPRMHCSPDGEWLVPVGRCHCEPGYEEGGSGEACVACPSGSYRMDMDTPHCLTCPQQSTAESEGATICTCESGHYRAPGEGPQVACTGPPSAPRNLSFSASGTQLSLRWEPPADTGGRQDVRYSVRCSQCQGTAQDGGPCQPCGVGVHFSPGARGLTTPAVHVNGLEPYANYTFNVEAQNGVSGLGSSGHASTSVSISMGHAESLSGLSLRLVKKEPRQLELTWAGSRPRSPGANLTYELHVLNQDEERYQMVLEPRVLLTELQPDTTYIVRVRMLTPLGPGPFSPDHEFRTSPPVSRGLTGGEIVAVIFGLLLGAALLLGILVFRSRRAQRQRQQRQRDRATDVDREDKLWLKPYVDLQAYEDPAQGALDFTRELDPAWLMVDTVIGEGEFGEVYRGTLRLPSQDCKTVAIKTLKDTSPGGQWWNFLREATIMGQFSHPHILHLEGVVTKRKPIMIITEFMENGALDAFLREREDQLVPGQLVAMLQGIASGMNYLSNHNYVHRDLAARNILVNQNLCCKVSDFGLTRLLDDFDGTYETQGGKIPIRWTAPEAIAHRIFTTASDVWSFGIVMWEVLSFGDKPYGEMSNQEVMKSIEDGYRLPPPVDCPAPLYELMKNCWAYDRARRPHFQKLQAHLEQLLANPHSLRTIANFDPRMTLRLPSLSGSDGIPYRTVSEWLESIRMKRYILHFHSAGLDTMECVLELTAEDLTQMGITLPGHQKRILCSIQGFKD

[6] = molecular target: Ribosomal protein S6 kinase alpha-2 (Homo sapiens) (UniProt Q15349); conditions: Compound concentration 1000.0 nM
Ribosomal protein S6 kinase alpha-2 (Homo sapiens), sequence (Q15349 whole entry): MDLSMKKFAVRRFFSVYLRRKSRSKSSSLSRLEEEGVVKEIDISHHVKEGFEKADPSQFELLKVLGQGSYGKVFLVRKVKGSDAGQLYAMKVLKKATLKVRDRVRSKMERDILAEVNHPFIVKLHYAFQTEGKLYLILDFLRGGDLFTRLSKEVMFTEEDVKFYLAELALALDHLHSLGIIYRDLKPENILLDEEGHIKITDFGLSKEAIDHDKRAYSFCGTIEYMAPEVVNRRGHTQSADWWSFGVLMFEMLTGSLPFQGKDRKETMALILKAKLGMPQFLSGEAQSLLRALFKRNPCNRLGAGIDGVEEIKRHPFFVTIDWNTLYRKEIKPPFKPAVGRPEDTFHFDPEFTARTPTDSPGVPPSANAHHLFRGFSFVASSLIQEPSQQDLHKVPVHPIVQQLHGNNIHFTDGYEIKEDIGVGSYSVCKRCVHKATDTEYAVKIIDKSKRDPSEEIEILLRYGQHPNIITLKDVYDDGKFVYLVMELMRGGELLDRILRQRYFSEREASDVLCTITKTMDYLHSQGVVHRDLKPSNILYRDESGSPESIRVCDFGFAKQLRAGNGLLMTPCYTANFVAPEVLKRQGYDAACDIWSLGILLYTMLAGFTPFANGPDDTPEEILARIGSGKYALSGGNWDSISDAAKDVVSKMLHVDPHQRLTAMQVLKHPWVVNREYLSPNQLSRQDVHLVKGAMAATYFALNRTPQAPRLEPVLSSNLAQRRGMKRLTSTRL

[7] = molecular target: T2, Aurora kinase C (Homo sapiens) (UniProt Q9UQB9); conditions: Compound concentration 1000.0 nM
T2 sequence (whole entry): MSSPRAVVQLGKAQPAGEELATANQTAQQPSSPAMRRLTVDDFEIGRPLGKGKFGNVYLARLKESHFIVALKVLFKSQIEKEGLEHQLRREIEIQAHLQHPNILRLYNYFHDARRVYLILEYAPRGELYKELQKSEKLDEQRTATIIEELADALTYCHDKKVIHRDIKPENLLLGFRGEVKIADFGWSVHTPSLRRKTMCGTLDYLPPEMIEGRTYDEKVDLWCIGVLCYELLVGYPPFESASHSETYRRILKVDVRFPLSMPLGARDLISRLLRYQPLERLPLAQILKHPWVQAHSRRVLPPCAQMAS

[8] = molecular target: Cyclin-dependent kinase 7 (Homo sapiens) (UniProt P50613); conditions: Compound concentration 1000.0 nM
Cyclin-dependent kinase 7 (Homo sapiens), sequence (P50613 whole entry): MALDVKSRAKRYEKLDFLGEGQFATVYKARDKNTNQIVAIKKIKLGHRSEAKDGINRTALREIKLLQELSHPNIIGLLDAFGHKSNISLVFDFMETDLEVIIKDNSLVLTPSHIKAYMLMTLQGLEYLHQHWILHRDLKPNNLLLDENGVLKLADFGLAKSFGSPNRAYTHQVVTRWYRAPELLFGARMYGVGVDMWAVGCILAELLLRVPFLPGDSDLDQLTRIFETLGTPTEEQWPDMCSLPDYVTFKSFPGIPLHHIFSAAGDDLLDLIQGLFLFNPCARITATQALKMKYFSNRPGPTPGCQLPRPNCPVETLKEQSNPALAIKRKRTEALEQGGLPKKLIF

[9] = molecular target: SRSF protein kinase 2 (Homo sapiens) (UniProt P78362); conditions: Compound concentration 1000.0 nM
SRSF protein kinase 2 (Homo sapiens), sequence (P78362 whole entry, looked up): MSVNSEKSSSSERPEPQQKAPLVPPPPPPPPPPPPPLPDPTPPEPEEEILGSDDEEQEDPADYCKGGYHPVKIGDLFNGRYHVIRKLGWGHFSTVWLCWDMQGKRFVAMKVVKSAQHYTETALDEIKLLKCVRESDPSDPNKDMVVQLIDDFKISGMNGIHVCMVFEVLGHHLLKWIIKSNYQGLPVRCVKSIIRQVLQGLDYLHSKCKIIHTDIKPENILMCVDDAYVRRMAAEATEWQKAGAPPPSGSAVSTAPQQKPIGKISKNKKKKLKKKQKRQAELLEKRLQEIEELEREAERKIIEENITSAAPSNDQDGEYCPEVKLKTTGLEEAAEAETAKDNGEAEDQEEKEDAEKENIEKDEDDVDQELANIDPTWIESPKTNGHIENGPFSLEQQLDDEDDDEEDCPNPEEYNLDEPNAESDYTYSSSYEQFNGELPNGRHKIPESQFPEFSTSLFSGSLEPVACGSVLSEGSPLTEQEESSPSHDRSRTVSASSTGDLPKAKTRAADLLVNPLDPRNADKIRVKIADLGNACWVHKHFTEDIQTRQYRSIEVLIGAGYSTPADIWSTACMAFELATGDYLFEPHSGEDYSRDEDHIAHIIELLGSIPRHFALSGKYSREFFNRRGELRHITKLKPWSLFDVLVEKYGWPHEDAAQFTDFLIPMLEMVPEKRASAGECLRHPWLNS

[10] = molecular target: T3, Serine/threonine-protein kinase TAO1 (Homo sapiens) (UniProt Q7L7X3); conditions: Compound concentration 1000.0 nM
T3 sequence (whole entry): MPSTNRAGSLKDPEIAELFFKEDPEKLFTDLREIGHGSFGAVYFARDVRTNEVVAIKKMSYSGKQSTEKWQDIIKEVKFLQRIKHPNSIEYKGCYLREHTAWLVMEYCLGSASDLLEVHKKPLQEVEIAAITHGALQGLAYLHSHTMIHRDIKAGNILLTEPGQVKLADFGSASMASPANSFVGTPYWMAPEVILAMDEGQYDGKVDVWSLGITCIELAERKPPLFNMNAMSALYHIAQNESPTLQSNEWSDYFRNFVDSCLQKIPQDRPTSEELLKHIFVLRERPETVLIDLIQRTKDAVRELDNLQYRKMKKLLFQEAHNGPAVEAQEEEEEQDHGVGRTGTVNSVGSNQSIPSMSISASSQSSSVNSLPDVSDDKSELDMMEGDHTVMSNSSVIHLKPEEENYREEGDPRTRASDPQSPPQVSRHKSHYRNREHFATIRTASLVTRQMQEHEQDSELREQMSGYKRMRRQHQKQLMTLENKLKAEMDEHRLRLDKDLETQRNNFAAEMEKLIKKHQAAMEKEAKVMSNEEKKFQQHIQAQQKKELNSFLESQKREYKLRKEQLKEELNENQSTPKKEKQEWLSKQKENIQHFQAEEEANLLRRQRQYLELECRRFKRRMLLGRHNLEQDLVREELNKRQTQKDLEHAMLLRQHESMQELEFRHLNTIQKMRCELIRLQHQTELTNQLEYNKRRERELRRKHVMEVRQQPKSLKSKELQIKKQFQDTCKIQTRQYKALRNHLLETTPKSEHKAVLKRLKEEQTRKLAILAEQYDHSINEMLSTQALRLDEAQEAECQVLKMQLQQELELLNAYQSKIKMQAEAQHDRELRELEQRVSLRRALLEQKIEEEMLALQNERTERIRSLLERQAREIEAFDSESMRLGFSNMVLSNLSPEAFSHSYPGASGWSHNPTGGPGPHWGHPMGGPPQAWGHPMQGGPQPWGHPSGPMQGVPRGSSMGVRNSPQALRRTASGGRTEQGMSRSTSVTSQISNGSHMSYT

[11] = molecular target: Death-associated protein kinase 3 (Homo sapiens) (UniProt O43293); conditions: Compound concentration 1000.0 nM
Death-associated protein kinase 3 (Homo sapiens), sequence (O43293 whole entry, looked up): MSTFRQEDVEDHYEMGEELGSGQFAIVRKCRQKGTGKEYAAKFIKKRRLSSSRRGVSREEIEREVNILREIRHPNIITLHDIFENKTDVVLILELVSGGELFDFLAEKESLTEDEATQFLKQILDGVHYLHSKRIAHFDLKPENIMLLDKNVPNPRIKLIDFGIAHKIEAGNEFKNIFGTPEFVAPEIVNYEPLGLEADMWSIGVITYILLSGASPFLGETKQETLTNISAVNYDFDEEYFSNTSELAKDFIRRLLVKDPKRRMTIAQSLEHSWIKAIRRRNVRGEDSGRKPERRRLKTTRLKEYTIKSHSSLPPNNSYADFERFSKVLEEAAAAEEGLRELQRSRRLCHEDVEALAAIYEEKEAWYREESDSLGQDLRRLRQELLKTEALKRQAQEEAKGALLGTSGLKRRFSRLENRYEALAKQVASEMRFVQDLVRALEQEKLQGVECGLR

[12] = molecular target: Serine/threonine-protein kinase SIK3 (Homo sapiens) (UniProt Q9Y2K2); conditions: Compound concentration 1000.0 nM
Serine/threonine-protein kinase SIK3 (Homo sapiens), sequence (Q9Y2K2 whole entry, looked up): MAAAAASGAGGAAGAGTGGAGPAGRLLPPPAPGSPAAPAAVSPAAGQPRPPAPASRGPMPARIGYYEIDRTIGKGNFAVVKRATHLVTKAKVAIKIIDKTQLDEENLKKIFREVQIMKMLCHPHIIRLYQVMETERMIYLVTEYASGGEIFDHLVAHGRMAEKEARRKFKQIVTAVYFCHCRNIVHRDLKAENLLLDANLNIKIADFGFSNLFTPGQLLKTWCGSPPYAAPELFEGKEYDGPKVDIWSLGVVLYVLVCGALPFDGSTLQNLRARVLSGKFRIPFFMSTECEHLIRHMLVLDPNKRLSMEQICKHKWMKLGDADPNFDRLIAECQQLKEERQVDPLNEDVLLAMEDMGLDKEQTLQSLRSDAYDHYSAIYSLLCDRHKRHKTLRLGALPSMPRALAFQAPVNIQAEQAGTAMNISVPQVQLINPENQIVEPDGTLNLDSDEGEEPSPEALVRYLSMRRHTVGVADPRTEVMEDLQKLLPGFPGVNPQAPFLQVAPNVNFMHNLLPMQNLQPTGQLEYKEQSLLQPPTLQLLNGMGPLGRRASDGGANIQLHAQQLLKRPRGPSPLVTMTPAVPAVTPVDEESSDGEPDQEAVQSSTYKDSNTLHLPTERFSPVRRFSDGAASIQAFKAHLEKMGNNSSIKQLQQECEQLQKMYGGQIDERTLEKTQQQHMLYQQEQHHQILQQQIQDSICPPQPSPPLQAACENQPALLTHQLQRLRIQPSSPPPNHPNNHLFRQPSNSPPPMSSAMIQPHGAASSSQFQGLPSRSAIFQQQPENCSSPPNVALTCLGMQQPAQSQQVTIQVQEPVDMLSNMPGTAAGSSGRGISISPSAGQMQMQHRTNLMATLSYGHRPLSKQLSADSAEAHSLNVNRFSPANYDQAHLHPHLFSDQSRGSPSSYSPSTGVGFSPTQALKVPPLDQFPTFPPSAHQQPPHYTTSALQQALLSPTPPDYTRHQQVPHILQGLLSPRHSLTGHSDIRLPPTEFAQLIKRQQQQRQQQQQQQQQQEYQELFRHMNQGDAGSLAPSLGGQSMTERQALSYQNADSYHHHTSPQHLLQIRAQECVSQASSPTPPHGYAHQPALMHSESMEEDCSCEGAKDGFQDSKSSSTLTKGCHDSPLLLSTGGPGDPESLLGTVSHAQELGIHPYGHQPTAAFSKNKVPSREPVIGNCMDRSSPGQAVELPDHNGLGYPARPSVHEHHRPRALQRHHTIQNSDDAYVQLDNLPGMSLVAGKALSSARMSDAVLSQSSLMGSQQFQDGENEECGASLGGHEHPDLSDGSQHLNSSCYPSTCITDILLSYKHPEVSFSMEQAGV

[13] = molecular target: Wee1-like protein kinase (Homo sapiens) (UniProt P30291); conditions: Compound concentration 1000.0 nM
[14] = molecular target: Ribosomal protein S6 kinase alpha-2 (Homo sapiens) (UniProt Q15349); conditions: Compound concentration 1000.0 nM; remark: listed apart in the source
[15] = molecular target: Mast/stem cell growth factor receptor Kit (Homo sapiens) (UniProt P10721); conditions: Compound concentration 1000.0 nM

Non-receptor tyrosine-protein kinase TNK1 (Homo sapiens), sequence (Q13470 whole entry): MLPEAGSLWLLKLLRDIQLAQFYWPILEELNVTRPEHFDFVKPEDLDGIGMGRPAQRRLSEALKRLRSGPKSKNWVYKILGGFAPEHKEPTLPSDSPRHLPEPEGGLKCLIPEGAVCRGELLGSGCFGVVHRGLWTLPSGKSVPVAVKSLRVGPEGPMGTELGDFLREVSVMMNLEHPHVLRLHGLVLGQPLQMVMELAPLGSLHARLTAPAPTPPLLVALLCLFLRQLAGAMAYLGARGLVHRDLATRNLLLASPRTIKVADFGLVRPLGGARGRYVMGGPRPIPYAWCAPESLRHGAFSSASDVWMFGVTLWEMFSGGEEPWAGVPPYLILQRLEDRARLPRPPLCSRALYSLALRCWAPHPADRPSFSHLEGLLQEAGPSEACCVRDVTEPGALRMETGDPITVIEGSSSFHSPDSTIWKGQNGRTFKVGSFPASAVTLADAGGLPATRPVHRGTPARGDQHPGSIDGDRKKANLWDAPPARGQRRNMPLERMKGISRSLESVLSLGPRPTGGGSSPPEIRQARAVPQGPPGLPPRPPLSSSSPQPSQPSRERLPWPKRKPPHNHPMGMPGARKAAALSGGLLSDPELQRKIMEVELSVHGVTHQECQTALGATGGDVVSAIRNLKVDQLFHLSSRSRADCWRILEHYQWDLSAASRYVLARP
Delta-type opioid receptor (Homo sapiens), sequence (P41143 whole entry): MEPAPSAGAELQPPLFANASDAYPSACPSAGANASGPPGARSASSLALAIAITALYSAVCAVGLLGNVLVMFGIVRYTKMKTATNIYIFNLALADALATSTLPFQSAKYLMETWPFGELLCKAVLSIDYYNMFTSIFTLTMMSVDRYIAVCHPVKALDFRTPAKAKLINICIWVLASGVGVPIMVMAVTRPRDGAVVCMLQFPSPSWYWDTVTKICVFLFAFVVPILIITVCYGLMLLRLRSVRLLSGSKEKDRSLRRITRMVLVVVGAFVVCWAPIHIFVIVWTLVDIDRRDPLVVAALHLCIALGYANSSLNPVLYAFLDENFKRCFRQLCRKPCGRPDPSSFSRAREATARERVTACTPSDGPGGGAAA
Cyclin-dependent kinase-like 1 (Homo sapiens), sequence (Q00532 whole entry): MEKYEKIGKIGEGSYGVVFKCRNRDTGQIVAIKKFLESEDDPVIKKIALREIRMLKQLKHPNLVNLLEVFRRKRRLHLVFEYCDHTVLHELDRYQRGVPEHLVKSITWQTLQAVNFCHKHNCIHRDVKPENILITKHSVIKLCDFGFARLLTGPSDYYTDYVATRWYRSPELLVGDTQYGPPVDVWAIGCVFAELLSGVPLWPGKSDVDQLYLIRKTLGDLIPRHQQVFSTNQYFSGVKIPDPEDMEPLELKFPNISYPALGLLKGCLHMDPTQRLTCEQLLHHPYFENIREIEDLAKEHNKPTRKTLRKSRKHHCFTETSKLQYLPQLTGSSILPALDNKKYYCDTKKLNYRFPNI

Cc1nc(C2CCN(C(=O)c3ccc(OC(F)(F)F)cc3N)CC2)c2ncc(N3CCN(C)CC3)cc2n1 [BAY-693]
inactive: residual activity [1] 100% | residual activity [2] 89% | inhibition [3] 4.34% | residual activity [4] 97% | residual activity [5] 100% | residual activity [6] 100% | residual activity [7] 100% | residual activity [8] 100% | residual activity [9] 74% | residual activity [10] 100% | residual activity [11] 100% | residual activity [12] 91% | residual activity [13] 94% | residual activity [14] 100% | residual activity [15] 90%

CN1CCN(c2cnc3c(C4CCN(C(=O)c5ccc(OC(F)(F)F)cc5N)CC4)ncnc3c2)CC1 [BAY-885]
inactive: residual activity [1] 100% | residual activity [2] 94% | inhibition [3] 0.94% | residual activity [4] 100% | residual activity [5] 95% | residual activity [6] 100% | residual activity [7] 67% | residual activity [8] 89% | residual activity [9] 78% | residual activity [10] 100% | residual activity [11] 91% | residual activity [12] 100% | residual activity [13] 96% | residual activity [14] 100% | residual activity [15] 98%
